Experimental data as given in ChEMBL document CHEMBL4433231 (Bioorg Med Chem Lett, 2019).

Target: Vitamin K epoxide reductase complex subunit 1 (Homo sapiens, UniProt Q9BQB6)
Assay: Inhibition of VKOR (unknown origin) in HEK293 expressing FIXgla-PC incubated for 48 hrs by ELISA
Assay type: cell-based

Sequence of Vitamin K epoxide reductase complex subunit 1 (Q9BQB6 whole entry, one chain of several): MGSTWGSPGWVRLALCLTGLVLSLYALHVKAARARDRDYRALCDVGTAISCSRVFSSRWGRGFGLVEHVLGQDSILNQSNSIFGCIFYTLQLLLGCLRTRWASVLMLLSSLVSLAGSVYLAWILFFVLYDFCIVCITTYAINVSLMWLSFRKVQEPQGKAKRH

With `CC1(O)CC(C2=C/C=C\C=C/C=C\2)c2c(c3ccccc3oc2=O)O1` (racemic) as the compound, how does the IC50 read?
Its IC50 is 4.5 nM.

Which IC50 does the source give for `C[C@]1(O)C[C@H](C2=C/C=C\C=C/C=C\2)[C@]2(COc3ccccc3C2=O)n2c(=O)n(-c3ccccc3)c(=O)n21` here?
The IC50 was 58.2 nM.

How did the IC50 turn out when `CC(=O)CC(c1c(O)c2ccccc2oc1=O)C1CCCCC1` (racemic) was run?
Its IC50 is 90.2 nM.

With `CC(=O)CC(c1c(O)c2ccccc2oc1=O)C1CCCCCCC1` (racemic) as the compound, how does the IC50 read?
Its IC50 is 59 nM.

`CC(=O)CC(C1=C/C=C(C(=O)O)\C=C/C=C\1)c1c(O)c2ccccc2oc1=O` (racemic) was tested. Which IC50 did it give?
The IC50 was 1930 nM.
